Holding throughout (experiment): growth of human tumour cells (NCI), 48 h
The subject of assay [1] is A549.
For assay [2], the system named is BT-549.
Assay [3] relates to CAKI-1.
Assay [4] has as its system DU-145.
The test system of assay [5] is HCT-15.
In assay [6] the test system is HL-60.
In assay [7] the test system is HOP-62.
Assay [8] concerns MCF7.
Assay [9] has as its system MDA-N.
The subject of assay [10] is Malme-3M.
For assay [11], the system named is OVCAR-3.
Assay [12] relates to SF-268.
For assay [13], the system named is SK-OV-3.
Assay [14] has as its system SW-620.
The test system of assay [15] is UACC-257.
For assay [16], the system named is UACC-62.
In assay [17] the test system is UO-31.
The subject of assay [18] is A498.
In assay [19] the test system is NCI-H460.

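Cultured in 96-well plates, cells were exposed to test compound for 48 hours across five concentrations. The concentration for 50% growth inhibition is given as GI50.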 Active and inactive are the calls of the source. Rule as the data show it: active = GI50 up to about 1.1 µM and inactive = higher. Starred links: 1 amine or outer side, 2 acyl side, 3 side chain; linkers in the order of their positions; H or OH if unused. Non-standard residues stand in square brackets, D forms with d. Residues, ends and D or L forms follow the SMILES beside them. *: point of attachment. X34 = CC(=O)N(C)SCC(N[*:1])C(=O)[*:2]; Cbz = O=C(OCc1ccccc1)*; Bn = c1ccc(C*)cc1; For = O=C* Bounds are passed on as bounds.

As for `O=c1[nH]c2nc3ccccc3c(=O)n2/c1=C/c1ccc(O)cc1`, the GI50 was 40.6 µM (inactive) in [1]; 32.1 µM (inactive) in assay [2]; 43.3 µM (inactive) in assay [3]; 30.8 µM (inactive) in assay [4]; 30.9 µM in assay [5]; 26 µM (inactive) in assay [6]. In addition, the GI50 in [7] was 64 µM (inactive); in assay [8], 31 µM (inactive); in assay [9] it was 32.3 µM (inactive); in assay [10], 39.1 µM (inactive); in [11], 27 µM (inactive); in [12], 25.4 µM (inactive). The GI50 was > 100 µM (inactive) in [13]; 22.6 µM (inactive) in assay [14]; 56.8 µM (inactive) in [15]; 27 µM (inactive) in assay [16]; 53.7 µM (inactive) in assay [17].
Take `COc1ccccc1N1C(=O)/C(=C\c2ccccc2)SC1c1cc(OC)c(OC)c(OC)c1` (stereo not drawn): the GI50 was 55.6 µM (inactive) in assay [18]; 40.7 µM (inactive) in assay [1]; 34.8 µM (inactive) in [2]; 34.2 µM (inactive) in [3]; 32.3 µM in assay [5]; 46.7 µM (inactive) in assay [7]. In addition, the GI50 in assay [8] is 32.3 µM (inactive); in [9] it was 17.9 µM (inactive); in assay [10], 45.5 µM (inactive); in [12], 48.5 µM (inactive); in assay [13], 42.3 µM (inactive); in assay [15], 83.4 µM (inactive). Besides, the GI50 in assay [16] is 30.2 µM (inactive); in assay [17] it was 45.4 µM (inactive).
For the compound `CCSc1nc(N2CCOCC2)c2cn[nH]c2n1`, the GI50 in assay [18] was 4.6 µM (inactive); in [1], 76.9 µM (inactive); in assay [2], 82.2 µM (inactive); in [3], 28.2 µM (inactive); in [4] it was > 100 µM (inactive); in assay [5], 65.5 µM. Moreover, the GI50 is > 100 µM (inactive) in [6]; > 100 µM (inactive) in assay [7]; 44.9 µM (inactive) in assay [8]; > 100 µM (inactive) in assay [10]; 49.9 µM (inactive) in [19]; 52.1 µM (inactive) in assay [11]. Moreover, the GI50 in assay [12] was > 100 µM (inactive); in [13], 86.3 µM (inactive); in assay [14], > 100 µM (inactive); in assay [15] it was > 100 µM (inactive); in [16], 20.7 µM (inactive); in assay [17], 21.5 µM (inactive).
As to `Cc1cc2ccc(N)nc2nc1O`, the GI50 was > 100 µM (inactive) in assay [1]; > 100 µM (inactive) in [2]; > 100 µM (inactive) in [3]; > 100 µM (inactive) in assay [4]; greater than 100 µM in assay [5]; > 100 µM (inactive) in assay [6]. In addition, the GI50 in assay [8] is > 100 µM (inactive); in assay [9], > 100 µM (inactive); in assay [10], > 100 µM (inactive); in assay [19], > 100 µM (inactive); in [12], 92.9 µM (inactive); in assay [13], > 100 µM (inactive). Moreover, the GI50 in assay [14], in assay [15], in [16] and in assay [17] was > 100 µM (inactive) each time.
With `COc1ccc(N2CC(=O)N(C(=O)COc3ccc(OCC(=O)N4C(=O)CN(c5ccc(OC)cc5)C4=S)cc3)C2=S)cc1`, the GI50 in assay [18] was > 100 µM (inactive); in assay [1], 46.9 µM (inactive); in assay [2] it was > 100 µM (inactive); in [3], > 100 µM (inactive); in assay [4], > 100 µM (inactive); in [5], greater than 100 µM. Besides, the GI50 in assay [8] was 48.6 µM (inactive); in assay [9], > 100 µM (inactive); in assay [10] it was 4.47 µM (inactive); in assay [19] it was 59.2 µM (inactive); in [12], > 100 µM (inactive); in assay [13], > 100 µM (inactive). The GI50 in assay [14] was > 100 µM (inactive); in assay [15], 48.3 µM (inactive); in assay [16], 70.8 µM (inactive); in [17] it was > 100 µM (inactive).
Turning to `COc1ccc2nc3ccc(OC)cc3c(SCC3CO3)c2c1` (stereo not drawn), the GI50 in assay [18] was 25.8 µM (inactive); in assay [1], 24.2 µM (inactive); in assay [2] it was 15.8 µM (inactive); in assay [3], 5.79 µM (inactive); in assay [5] it was 15.6 µM; in assay [7], 44.6 µM (inactive). In addition, the GI50 was 11.2 µM (inactive) in assay [8]; 15.8 µM (inactive) in assay [9]; 14.1 µM (inactive) in assay [10]; 12 µM (inactive) in assay [19]; 14.9 µM (inactive) in assay [11]; 13.2 µM (inactive) in assay [12]. The GI50 in [13] was 71.3 µM (inactive); in assay [14], 11.1 µM (inactive); in assay [15] it was 15.5 µM (inactive); in [17] it was 12.3 µM (inactive).
On to `O=CN(CCN1CCCC1)C1CCc2cc(Cl)c(Cl)cc2C1` (stereo not drawn), for which the GI50 in [1] was 7.71 µM (inactive); in assay [2], 14.1 µM (inactive); in assay [3], 18.9 µM (inactive); in assay [4], 34.7 µM (inactive); in [5], 15.8 µM; in assay [6], 19.2 µM (inactive). Also, the GI50 is 11.3 µM (inactive) in [7]; 10 µM (inactive) in assay [9]; 13.6 µM (inactive) in assay [10]; 0.196 µM (active) in assay [19]; 12.3 µM (inactive) in [11]; 18.5 µM (inactive) in assay [12]. The GI50 in assay [13] is 0.714 µM (active); in assay [14], 27.3 µM (inactive); in assay [15], 15.2 µM (inactive); in [17], 14.1 µM (inactive).
For `CCOP(=O)(OCC)C(C)(CC)NC1=NC(C(F)(F)F)(C(F)(F)F)NC(=O)N1` (stereo not drawn), the GI50 in [1] is > 100 µM (inactive); in assay [2], > 100 µM (inactive); in assay [3], > 100 µM (inactive); in [4], > 100 µM (inactive); in assay [5], greater than 100 µM; in assay [6], > 100 µM (inactive). The GI50 in [7], in assay [8], in assay [9], in [10], in assay [19] and in [11] was > 100 µM (inactive) throughout. Besides, the GI50 in assay [12], in assay [13], in assay [14], in assay [15], in [16] and in assay [17] was > 100 µM (inactive) throughout.
On to `N#C/C(C(=O)Nc1ccccc1)=C(/N)N1CCOCC1`, for which the GI50 is > 100 µM (inactive) in [18]; > 100 µM (inactive) in assay [1]; > 100 µM (inactive) in assay [2]; > 100 µM (inactive) in [3]; > 100 µM (inactive) in assay [4]; greater than 100 µM in assay [5]. Besides, the GI50 in assay [7], in [8], in assay [9], in assay [19], in assay [11] and in [13] was > 100 µM (inactive) in each case. Moreover, the GI50 in [14], in assay [15], in [16] and in assay [17] was > 100 µM (inactive) throughout.
For `SCCCSCCSCCCSCCS`, the GI50 was > 100 µM (inactive) in assay [1]; > 100 µM (inactive) in assay [2]; > 100 µM (inactive) in [4]; greater than 100 µM in assay [5]; 13.3 µM (inactive) in assay [6]; > 100 µM (inactive) in assay [7]. Moreover, the GI50 in assay [8], in [9], in assay [19], in [11], in [12] and in assay [13] was > 100 µM (inactive) each time. The GI50 in assay [14] is > 100 µM (inactive); in [15] it was > 100 µM (inactive); in [16] it was > 100 µM (inactive); in assay [17] it was 80.9 µM (inactive).
With `O=C1/C(=C/c2ccccc2)CCCc2ccccc21`, the GI50 in [1] was 22.9 µM (inactive); in [2], 20 µM (inactive); in [3] it was 22.3 µM (inactive); in [4], 23.2 µM (inactive); in assay [5], 16.2 µM; in [6], 15.2 µM (inactive). Moreover, the GI50 in assay [7] is 19.2 µM (inactive); in assay [8], 17.4 µM (inactive); in assay [9] it was 19 µM (inactive); in assay [10] it was 20.8 µM (inactive); in assay [19] it was 16 µM (inactive); in assay [11], 18.4 µM (inactive). In addition, the GI50 in [12] is 17.7 µM (inactive); in assay [13], 38.2 µM (inactive); in assay [14], 17.7 µM (inactive); in assay [15], 15.7 µM (inactive); in [16] it was 15.1 µM (inactive); in assay [17], 17.6 µM (inactive).
Regarding `CC(=O)N(C)SCC(NC(=O)C(Cc1ccccc1)NC(=O)OCc1ccccc1)C(=O)NC(Cc1ccccc1)C(=O)NC(Cc1cn(C=O)c2ccccc12)C(=O)NC(CCCCNC(=O)OCc1ccccc1)C(=O)NC(C(=O)NC(CSN(C)C(C)=O)C(=O)NC(C(N)=O)C(C)OCc1ccccc1)C(C)OCc1ccccc1` (stereo not drawn) (Cbz-F[X34]FW(For)K(Cbz)T(Bn)[X34]T(Bn)-NH2; configuration not given here), the GI50 is > 100 µM (inactive) in assay [1]; 21.1 µM (inactive) in assay [2]; > 100 µM (inactive) in [4]; greater than 100 µM in [5]; > 100 µM (inactive) in [6]; 82.8 µM (inactive) in assay [7]. The GI50 is > 100 µM (inactive) in [8]; > 100 µM (inactive) in assay [9]; 40.4 µM (inactive) in assay [10]; > 100 µM (inactive) in assay [19]; > 100 µM (inactive) in assay [11]; > 100 µM (inactive) in assay [12]. In addition, the GI50 is 33.2 µM (inactive) in assay [13]; > 100 µM (inactive) in assay [14]; > 100 µM (inactive) in assay [15]; 84.9 µM (inactive) in [16]; 45.7 µM (inactive) in [17].

Values taken from ChEMBL document CHEMBL1201862, “PubChem BioAssay data set” (2004).
